pIC50: −log10 of the molar value.
Experiments:
[1] = rat, in vivo
[2] = target: T1, estrone sulfatase activity in intact MDA-MB-231 breast cancer cells (Homo sapiens, UniProt P08842); experiment: In vitro estrogen sulfatase assay on intact cell monolayers; assay type: cell-based; settings: intact MDA-MB-231 monolayers, 18 hours at 37° C., [3H]E1S (2 nM), inhibitor 0.1 nM to 1 μM; read-out: apparent I.C. 50, concentration of the inhibitor to inhibit 50% of the sulfatase activity in the MDA-MB-231 cells
T1 construct: host or cells: MDA-MB-231
T1 sequence (P08842 22-583): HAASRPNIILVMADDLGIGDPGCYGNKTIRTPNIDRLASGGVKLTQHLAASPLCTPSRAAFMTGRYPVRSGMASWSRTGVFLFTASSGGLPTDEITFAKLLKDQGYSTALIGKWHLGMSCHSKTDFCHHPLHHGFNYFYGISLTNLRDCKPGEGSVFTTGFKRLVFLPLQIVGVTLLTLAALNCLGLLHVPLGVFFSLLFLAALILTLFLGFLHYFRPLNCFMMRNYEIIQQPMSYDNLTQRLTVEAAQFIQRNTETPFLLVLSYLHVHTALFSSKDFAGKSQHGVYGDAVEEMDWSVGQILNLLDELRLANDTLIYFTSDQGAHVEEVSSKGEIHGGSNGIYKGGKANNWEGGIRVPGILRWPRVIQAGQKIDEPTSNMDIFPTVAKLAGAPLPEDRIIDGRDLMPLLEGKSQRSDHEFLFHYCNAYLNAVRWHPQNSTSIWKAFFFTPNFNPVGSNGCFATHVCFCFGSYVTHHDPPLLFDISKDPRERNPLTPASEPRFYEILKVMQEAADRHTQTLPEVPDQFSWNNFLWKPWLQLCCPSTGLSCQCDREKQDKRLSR
Protocol: The in vitro sulfatase assay on intact cells involved a modification of the procedure of Duncan et al. ["Inhibition of estrone sulfatase activity by estrone 3-methylthiophosphonate", Cancer Res., Vol. 53, pp. 298-303 (1993)]. Intact nearly confluent monolayers of MDA-MB-231 (American Type Culture Collection) breast cancer cells in 6-well tissue-culture plates were washed with Hank's balanced salt solution (HBSS) and incubated for 18 hours at 37° C. with [^3 H]E1 S (5 pmol, 7×10^5 dpm) in serum-free Minimal Essential Medium (MEM) (2.5 ml) with or without test compounds (0.01 nM to 10 μM). After incubation, each dish was cooled and aliquots of the medium (0.5 ml) were pipetted into separate tubes containing 3 ml toluene. The mixture was shaken vigorously for 30 seconds and then centrifuged for 3 minutes at 2500 x g. Previous experiments have shown that >90% of estrone (E1) and <0.1% of […] (E1 S) is removed from the aqueous phase by this treatment. […] Radioactivity was determined using a Packard TriCarb scintillation counter with 50% efficiency for ^3 H. Each batch of experiments included dishes without cells (to assess apparent non-enzymatic hydrolysis of the substrate). […] Estrone sulfatase activity was determined from the amount of ^3 H-E1 tritiated estrone and ^3 H-E2 triated estradiol formed. […]

| SMILES | estrogenicity in uterine weight gain assay [1] | pIC50 [2] |
| --- | --- | --- |
| C[C@]12CC[C@@H]3c4ccc(OS(N)(=O)=O)cc4CC[C@H]3[C@@H]1CCC2=O [estrone 3-0 sulfamate] | estrogenic | – |
| CCCCCCCCCCCC(=O)NCCc1ccc(OS(N)(=O)=O)cc1 [N-lauroyl-(p-o-sulfamoyl) tyramine (C12), N-lauroyl-(p-o-sulfamoyl) tyramine] | – | 8.70 to 9.00 |
